The test system of the first test is isolated guinea pig hearts (coronary artery). Briefly: coronary vascular dilative effect in isolated guinea pig hearts (Langendorff's method). Set-up: species or system guinea pig (Heartley). To be noted: 37° C., 0.1 ml administered into the coronary artery. As for the experimental part: The coronary vascular dilative effect of 3N-substituted 3,4-dihydropyrimidine derivatives was tested.
Heartley guinea pigs (weight 400-500 g) were killed by a blow on the head and their hearts were immediately isolated. The hearts were perfused with Krebs-Henseleit solution bubbled with a mixture of 95% O2 +5% CO2 and maintained at 37° C. at a constant rate of 6 ml/minute according to the Langendorff's method [J. Pharmacol. Methods 2, 143 (1979)]. The perfusion pressure was measured by a pressure transducer continuously. Samples were prepared by emulsifying 1 mg of a test compound in 1 ml of a mixture of dimethylsulfoxide and physiological saline solution (1:9) and diluting with physiological saline solution to the predetermined concentration. 0.1 ml of the diluted solution was administered into the coronary artery via a rubber tube connected to an aorta cannula to obtain ED50 (μg/heart) data as shown in Table 3. The numbers of the compounds in the Table correspond respectively to those of the working examples described above.
Regarding `CC1=NC(C)=C(C(=O)OCC2CC2)C(c2cccc([N+](=O)[O-])c2)N1C(=O)OCCN(C)Cc1ccccc1` (stereo not drawn) [Compound 2], the “ED50 (coronary vascular dilative effect)” value is 0.52 μg/heart. The same measure, in the same setting: the value for `CC1=NC(C)=C(C(=O)OCC2CC2)C(c2ccccc2[N+](=O)[O-])N1C(=O)OCCN1CCN(Cc2ccccc2)CC1` (stereo not drawn) [Compound 24] was 0.01 μg/heart. For the compound `CC1=NC(C)=C(C(=O)OC(C)C)C(c2ccccc2[N+](=O)[O-])N1C(=O)OCCc1ccccn1` (stereo not drawn) [Compound 27], the “ED50 (coronary vascular dilative effect)” value worked out at 0.029 μg/heart.

The next test deals with vertebral artery. The test is described as follows: time course of reduction of the resistance of the vertebral artery in anesthetized dogs (T1/2). To be noted: ED30 doses injected. In kind it is in vivo, dog. The protocol: Selected compounds of the present invention were tested for their ability to reduce the resistance of the vertebral artery in anesthetized dogs.
The animals were injected with the ED30 doses of test compounds and the time course of changes in the vasucular resistance were studied as shown schematically in FIG. 1. From the curve shown in FIG. 1, the values of T1/2 (min) (the time to reach 50% of the resistance drop). The results are shown in Table 5, in which the compound numbers correspond to the Example numbers.
On to `CCOC(=O)C1=C(C)N=C(C)N(C(=O)OCCN(CCCc2ccccc2)Cc2ccccc2)C1c1cccc([N+](=O)[O-])c1` (stereo not drawn) [Compound 38], for which the “T1/2 (the time to reach 50% of the resistance drop)” value was 8.0 min. With `CC1=NC(C)=C(C(=O)OC(C)C)C(c2ccccc2[N+](=O)[O-])N1C(=O)OCCN(Cc1ccccc1)Cc1ccc2ccccc2c1` (stereo not drawn) [Compound 45], the “T1/2 (the time to reach 50% of the resistance drop)” value was found to be 15.6 min.

Consider `CC1=NC(C)=C(C(=O)OCC2CC2)C(c2ccccc2[N+](=O)[O-])N1C(=O)OCCN(C/C=C/c1ccccc1)Cc1ccccc1` (stereo not drawn) [Compound 29], for which the “T1/2 (the time to reach 50% of the resistance drop)” value amounted to 9.5 min. Same read-out and setting: the value for `CC1=NC(C)=C(C(=O)OCC2CC2)C(c2cccc([N+](=O)[O-])c2)N1C(=O)OCCN(CCCc1ccccc1)Cc1ccccc1` (stereo not drawn) [Compound 36] was 12.0 min.

Consider `CCCCOC(=O)C1=C(C)N=C(C)N(C(=O)OCCN(Cc2ccccc2)Cc2ccccc2)C1c1ccccc1[N+](=O)[O-]` (stereo not drawn) [Compound 47], for which the “T1/2 (the time to reach 50% of the resistance drop)” value is 13.0 min. For `CC1=NC(C)=C(C(=O)OCC2CC2)C(c2ccccc2[N+](=O)[O-])N1C(=O)OCCN(C/C=C/c1ccccc1)Cc1cccs1` (stereo not drawn) [Compound 32], the “T1/2 (the time to reach 50% of the resistance drop)” value turned out to be 7.0 min. In the case of `CC1=NC(C)=C(C(=O)OCC(C)C)C(c2ccccc2[N+](=O)[O-])N1C(=O)OCCN(Cc1ccccc1)Cc1ccccc1` (stereo not drawn) [Compound 55], the “T1/2 (the time to reach 50% of the resistance drop)” value is recorded as 9.2 min. In the case of `CC1=NC(C)=C(C(=O)OCC2CC2)C(c2ccccc2[N+](=O)[O-])N1C(=O)OCCN(C/C=C/c1ccccc1)C/C=C/c1ccccc1` (stereo not drawn) [Compound 33], the “T1/2 (the time to reach 50% of the resistance drop)” value was 30.5 min. On to `CC1=NC(C)=C(C(=O)OC(C)C)C(c2ccccc2[N+](=O)[O-])N1C(=O)OCCN(CCCc1ccccc1)CCCc1ccccc1` (stereo not drawn) [Compound 66], for which the “T1/2 (the time to reach 50% of the resistance drop)” value was determined as 11.9 min. For `CC1=NC(C)=C(C(=O)OC(C)C)C(c2cccc([N+](=O)[O-])c2)N1C(=O)OCCN(CCCc1ccccc1)Cc1ccccc1` (stereo not drawn) [Compound 37], the “T1/2 (the time to reach 50% of the resistance drop)” value was 10.3 min. On the same count and under the same terms, the value for `CC1=NC(C)=C(C(=O)OCC2CC2)C(c2ccccc2[N+](=O)[O-])N1C(=O)OCCN(Cc1ccccc1)Cc1ccccc1` (stereo not drawn) [Compound 52] was 8.0 min. Consider `CC1=NC(C)=C(C(=O)OC(C)C)C(c2ccccc2[N+](=O)[O-])N1C(=O)OCCN(CCCc1ccccc1)c1ccccc1` (stereo not drawn) [Compound 53], for which the “T1/2 (the time to reach 50% of the resistance drop)” value was found to be 7.7 min.

In the next test the test system is vertebral artery. Briefly: vascular resistance of the vertebral artery in anesthetized dogs (ED30). The class given is in vivo, dog. To be noted: Canis lupus familiaris, intravenous injection. The protocol:
The pharmacological effect (ED30) of the compounds of the present invention with respect to the vascular resistance of the vertebral artery in anesthetized dogs was treated by the following procedure.
Adult dogs of either sex (7-14 kg in body weight) were anesthetized with at first thiopental sodium (35 mg/kg, intraperitoneal), anesthetized with urethane (400 mg/kg, intravenous) and chloralose (60 mg/kg, intravenous) and kept under artificial respiration throughout the experiment. After thoracotomy at the left first intercostal space, the vertebral artery was exposed and blood flow was measured with intracorporeal flow probe connected to an electromagnetic flowmeter (MF-27, Nihon Kohden).
At the same time, continuous measurement of the following parameters was made: systemic blood pressure (mean pressure) at the right femoral artery, the limb lead II ECG, the heart rate with a tachometer triggered by the R wave of ECG, and the vascular resistance determined by loading a electronic divider unit (EO-601 G, Nihon Kohden) with the mean values of blood pressure and vertebral artery blood flow. All of these parameters were recorded simultaneously on a polygraph (RM-600, Nihon Kohden).
All the test compounds were injected through a cannula inserted into the femoral vein.
The ED30 (μg/kg) values obtained by intravenous injection are listed in Table 4, wherein the Compound Numbers are keyed to the Example Numbers.
Turning to `CCOC(=O)C1=C(C)N=C(C)N(C(=O)OCCN(CCCc2ccccc2)Cc2ccccc2)C1c1cccc([N+](=O)[O-])c1` (stereo not drawn) [Compound 38], the ED30 was determined as 4.2 µg/kg. Still for that read-out and setting: the value for `CC1=NC(C)=C(C(=O)OCC2CC2)C(c2cccc([N+](=O)[O-])c2)N1C(=O)OCCN(C)Cc1ccccc1` (stereo not drawn) [Compound 2] was 0.84 µg/kg.

`CC1=NC(C)=C(C(=O)OCC2CC2)C(c2ccccc2[N+](=O)[O-])N1C(=O)OCCSc1nc2ccccc2s1` (stereo not drawn) [Compound 64] showed an ED30 of 0.93 µg/kg. For the compound `CC1=NC(C)=C(C(=O)OC(C)C)C(c2ccccc2[N+](=O)[O-])N1C(=O)OCCN(CCc1ccccc1)c1ccccc1` (stereo not drawn) [Compound 54], the ED30 came to 1.4 µg/kg. Compound `CC1=NC(C)=C(C(=O)OCC2CC2)C(c2ccccc2[N+](=O)[O-])N1C(=O)OCCN1CCN(c2cccc(C(F)(F)F)c2)CC1` (stereo not drawn) [Compound 26] yielded an ED30 of 4.1 µg/kg. The same measure, in the same setting: the value for `CC1=NC(C)=C(C(=O)OC(C)C)C(c2ccccc2[N+](=O)[O-])N1C(=O)OCCN(Cc1ccccc1)Cc1ccc2ccccc2c1` (stereo not drawn) [Compound 45] was 1.8 µg/kg. In turn, `CC1=NC(C)=C(C(=O)OCC2CC2)C(c2ccccc2[N+](=O)[O-])N1C(=O)OCCN(C/C=C/c1ccccc1)Cc1ccccc1` (stereo not drawn) [Compound 29] returned an ED30 of 2.5 µg/kg.

`CC1=NC(C)=C(C(=O)OC(C)C)C(c2cccc([N+](=O)[O-])c2)N1C(=O)OCCN(Cc1ccccc1)c1ccccc1` (stereo not drawn) [Compound 70]: the ED30 came to 3 µg/kg. Still for that read-out and setting: the value for `CCCCN(CCOC(=O)N1C(C)=NC(C)=C(C(=O)OCC2CC2)C1c1ccccc1[N+](=O)[O-])Cc1ccccc1` (stereo not drawn) [Compound 14] was 2.1 µg/kg; that for `CCOC(=O)C1=C(C)N=C(C)N(C(=O)OCCN(CCCc2ccccc2)Cc2ccccc2)C1c1ccccc1[N+](=O)[O-]` (stereo not drawn) [Compound 40] was 1.5 µg/kg; that for `CC1=NC(C)=C(C(=O)OCC2CC2)C(c2ccccc2[N+](=O)[O-])N1C(=O)OCC1CCCN1Cc1ccccc1` (stereo not drawn) [Compound 19] was 1.4 µg/kg. Take `CC1=NC(C)=C(C(=O)OCC2CC2)C(c2ccccc2[N+](=O)[O-])N1C(=O)OCCN(C)C(c1ccccc1)c1ccccc1` (stereo not drawn) [Compound 8]: the ED30 turned out to be 4.1 µg/kg. Regarding `CC1=NC(C)=C(C(=O)OCC2CC2)C(c2ccccc2[N+](=O)[O-])N1C(=O)OCCN1CCOCC1` (stereo not drawn) [Compound 20], the ED30 worked out at 4 µg/kg. With `CC1=NC(C)=C(C(=O)OC(C)C)C(c2ccccc2[N+](=O)[O-])N1C(=O)OCCN(Cc1ccccc1)c1ccccc1` (stereo not drawn) [Compound 50], the ED30 is 0.74 µg/kg.

As for `COC(=O)C1=C(C)N=C(C)N(C(=O)OCCN(CCCc2ccccc2)Cc2ccccc2)C1c1ccccc1[N+](=O)[O-]` (stereo not drawn) [Compound 57], the ED30 worked out at 0.48 µg/kg. Take `CC1=NC(C)=C(C(=O)OC(C)C)C(c2ccccc2[N+](=O)[O-])N1C(=O)OCCN(CCCc1ccccc1)Cc1ccccc1` (stereo not drawn) [Compound 39]: the ED30 amounted to 2.3 µg/kg. As to `CC1=NC(C)=C(C(=O)OCC2CC2)C(c2ccccc2[N+](=O)[O-])N1C(=O)OCCN(C/C=C/c1ccccc1)Cc1cccs1` (stereo not drawn) [Compound 32], the ED30 was determined as 3.2 µg/kg. Same read-out and setting: the value for `CC1=NC(C)=C(C(=O)OCC2CC2)C(c2ccccc2[N+](=O)[O-])N1C(=O)OCCc1cccs1` (stereo not drawn) [Compound 63] was 1.3 µg/kg; that for `CC1=NC(C)=C(C(=O)OCC(C)C)C(c2ccccc2[N+](=O)[O-])N1C(=O)OCCN(Cc1ccccc1)Cc1ccccc1` (stereo not drawn) [Compound 55] was 3.8 µg/kg; that for `CCOC(=O)C1=C(C)N=C(C)N(C(=O)OCCN(Cc2ccccc2)Cc2ccccc2)C1c1ccccc1[N+](=O)[O-]` (stereo not drawn) [Compound 61] was 1.4 µg/kg. The compound `CC1=NC(C)=C(C(=O)OCC2CC2)C(c2ccccc2[N+](=O)[O-])N1C(=O)OCCN(C)Cc1ccccn1` (stereo not drawn) [Compound 35] came in with an ED30 of 4.2 µg/kg. `CC1=NC(C)=C(C(=O)OCC2CC2)C(c2ccccc2[N+](=O)[O-])N1C(=O)OCCN(C)CCc1ccccc1` (stereo not drawn) [Compound 17] had an ED30 of 3.4 µg/kg. `CC1=NC(C)=C(C(=O)OC(C)C)C(c2ccccc2[N+](=O)[O-])N1C(=O)OCCN(Cc1ccccn1)c1ccccc1` (stereo not drawn) [Compound 58] gave an ED30 of 2.5 µg/kg.

The compound `COC(=O)C1=C(C)N=C(C)N(C(=O)OCCN(Cc2ccccc2)Cc2ccccc2)C1c1ccccc1[N+](=O)[O-]` (stereo not drawn) [Compound 48] displayed an ED30 of 2 µg/kg.

`CC1=NC(C)=C(C(=O)OC(C)C)C(c2ccccc2[N+](=O)[O-])N1C(=O)OCCN(Cc1ccccc1)Cc1ccccn1` (stereo not drawn) [Compound 68] displayed an ED30 of 4.4 µg/kg.

Turning to `CC1=NC(C)=C(C(=O)OC(C)C)C(c2ccccc2[N+](=O)[O-])N1C(=O)OCCN(CCc1ccccc1)Cc1ccccc1` (stereo not drawn) [Compound 62], the ED30 was found to be 1.2 µg/kg. `CCN(CCOC(=O)N1C(C)=NC(C)=C(C(=O)OCC2CC2)C1c1ccccc1[N+](=O)[O-])c1ccccc1` (stereo not drawn) [Compound 15] had an ED30 of 2.5 µg/kg. Compound `CC1=NC(C)=C(C(=O)OC(C)C)C(c2ccccc2[N+](=O)[O-])N1C(=O)OCCN(Cc1ccccc1)Cc1cccs1` (stereo not drawn) [Compound 67] showed an ED30 of 1 µg/kg. The same measure, in the same setting: the value for `CC1=NC(C)=C(C(=O)OCC2CC2)C(c2ccccc2[N+](=O)[O-])N1C(=O)OCCCN(C)Cc1ccccc1` (stereo not drawn) [Compound 16] was 3.8 µg/kg. `CC1=NC(C)=C(C(=O)OCC2CC2)C(c2ccccc2[N+](=O)[O-])N1C(=O)OCCN(C)Cc1ccc2ccccc2c1` (stereo not drawn) [Compound 30]: the ED30 turned out to be 0.6 µg/kg.

`CC1=NC(C)=C(C(=O)OC(C)C)C(c2ccccc2[N+](=O)[O-])N1C(=O)OCCN(Cc1ccccc1)Cc1ccccc1` (stereo not drawn) [Compound 49] displayed an ED30 of 2.8 µg/kg. The same measure, in the same setting: the value for `CC1=NC(C)=C(C(=O)OCC2CC2)C(c2ccccc2[N+](=O)[O-])N1C(=O)OCCN(Cc1ccccc1)Cc1ccccc1` (stereo not drawn) [Compound 52] was 1.5 µg/kg; that for `CC1=NC(C)=C(C(=O)OC(C)C)C(c2ccccc2[N+](=O)[O-])N1C(=O)OCCN(CCCc1ccccc1)c1ccccc1` (stereo not drawn) [Compound 53] was 2.5 µg/kg. In the case of `CC1=NC(C)=C(C(=O)OCC(C)C)C(c2ccccc2[N+](=O)[O-])N1C(=O)OCCN(Cc1ccccc1)c1ccccc1` (stereo not drawn) [Compound 60], the ED30 was 1.7 µg/kg. Still for that read-out and setting: the value for `CCCOC(=O)C1=C(C)N=C(C)N(C(=O)OCCN(Cc2ccccc2)Cc2ccccc2)C1c1ccccc1[N+](=O)[O-]` (stereo not drawn) [Compound 46] was 2 µg/kg. In turn, `COC(=O)C1=C(C)N=C(C)N(C(=O)OCCN(Cc2ccccc2)c2ccccc2)C1c1ccccc1[N+](=O)[O-]` (stereo not drawn) [Compound 71] had an ED30 of 5 µg/kg.

(Values after patent US4772602A, “N-substituted 3,4-dihydropyrimidine derivatives as agents for treating disorders of cardiovascular system” (Suntory Limited, priority 1985, dated 1988).)
